41 molecules from patent US8895581B2, “1H-imidazo[4,5-c]quinolines” (Boehringer Ingelheim International GmbH, priority 2010, dated 2014) can be followed below.

Sequence of Recombinant human PDK1 enzyme (aa 52-556) (O15530 52-556): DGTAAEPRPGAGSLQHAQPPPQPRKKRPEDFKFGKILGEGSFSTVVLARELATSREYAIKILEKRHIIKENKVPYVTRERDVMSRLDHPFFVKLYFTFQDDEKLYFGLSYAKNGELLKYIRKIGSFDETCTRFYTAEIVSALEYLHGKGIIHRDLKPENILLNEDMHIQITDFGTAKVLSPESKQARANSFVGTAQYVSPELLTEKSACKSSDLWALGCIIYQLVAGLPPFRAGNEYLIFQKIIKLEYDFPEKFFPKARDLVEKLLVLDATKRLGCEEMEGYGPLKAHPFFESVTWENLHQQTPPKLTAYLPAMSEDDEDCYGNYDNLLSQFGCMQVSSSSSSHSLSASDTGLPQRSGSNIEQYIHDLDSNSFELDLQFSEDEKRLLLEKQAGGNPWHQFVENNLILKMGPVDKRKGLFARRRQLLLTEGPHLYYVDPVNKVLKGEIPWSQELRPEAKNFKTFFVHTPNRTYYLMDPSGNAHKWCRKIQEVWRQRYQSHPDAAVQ

For this assay, the target named is Recombinant human PDK1 enzyme (aa 52-556) (Homo sapiens (Human), UniProt O15530). Description: PDK1 kinase assay. The class given is biochemical. The note with it: 25 μM ATP solution with gamma-P33-ATP, PDKtide substrate, 90 min at RT. Here is the method:
The activity of the compounds according to the invention on the kinase PDK1 which inhibits the signal transduction pathway is determined in an in vitro kinase assay with recombinantly prepared protein:
Recombinant human PDK1 enzyme (aa 52-556) linked at its N-terminal end to His6 is isolated from baculovirus-infected insect cells. Purified enzyme may be obtained for example from the University of Dundee, Scotland. The following components are combined in a well of a 96-well round-based dish (Greiner bio-one, No. 650101): • 1. 15 μL of compound to be tested in varying concentrations (e.g. starting at 10 μM, and diluted in steps of 1:5) in APT buffer (50 mM Tris/Cl pH7.5; 0.05% β-mercaptoethanol; 10 mM Mg-acetate; 0.0166% Tween 20; 3.33% DMSO) • 2. 15 μL His6-PDK1 (aa 52-556) 3.33 ng/well) and PDKtide (KTFCGTPEYLAPEVRRE […]), synthesised by Pepceuticals Limited, Nottingham, United Kingdom; 25 μM final concentration); His6-PDK1 and PDKtide are together diluted accordingly in assay buffer (50 mM tris pH 7.5, 0.05% β-mercaptoethanol, 10 mM Mg-acetate); PDKtide is present in this mixture as an 83.3 μM solution. These 30 μl are routinely incubated for 30 min at RT. • 3. 20 μL ATP solution (25 μM ATP with 1.0 μCi/well gamma-P33-ATP). The final concentration of Tween 20 is 0.005%.
The reaction is started by adding the ATP solution and the mixture is incubated for 90 min at RT. At the start of the reaction the dishes are shaken gently. The reaction is stopped by the addition of 50 μL/well of 500 mM phosphoric acid (H3PO4) and incubated for about 20 min at RT. The precipitate is transferred by harvesting onto filter plates (96-well microtitre filter plate: UniFilter GF/C; Perkin Elmer; No. 6005174), then washed 6 times with 50 mM H3PO4 and dried at 60° C. Then the plate is stuck down with sealing tape, 25 μL/well of scintillation solution (Microscint 0; Perkin Elmer; No. 6013611) are added and the amount of P33 precipitated is measured using the Wallac Betacounter. The measured data are evaluated using Graphpad Prism software.
With `Cc1nc2cnc3ccc(C#CCNC(=O)c4cccn([C@@H](C)c5ccc(F)c(F)c5)c4=O)cc3c2n1[C@H]1CC[C@@H](N(C)C)CC1` [III-5], the IC50 – broadly, the concentration needed to halve the response being measured – worked out at 1 nM. Regarding `COc1nc2cnc3ccc(C#CCNC(=O)c4cncn(Cc5ccc(F)c(F)c5)c4=O)cc3c2n1C` [V-4], the IC50 is 18 nM. On to `Cc1nc2cnc3ccc(C#CCNC(=O)c4cccn([C@@H](CN)c5ccccc5)c4=O)cc3c2n1C(C)C` [II-22], for which the IC50 worked out at 16 nM. As for `CN(C)CCn1cnc2cnc3ccc(C#CCNC(=O)c4cccn(Cc5ccccc5)c4=O)cc3c21` [III-10], the concentration for half-maximal inhibition (IC50) stood at 277 nM.

As for `CN1CCC[C@@H](n2cnc3cnc4ccc(C#CCNC(=O)c5cc(Cl)nn(Cc6ccc(F)c(F)c6)c5=O)cc4c32)C1` [III-18], the IC50 came to 787 nM.

On to `CN1CC[C@H](n2cnc3cnc4ccc(C#CCNC(=O)c5cncn(Cc6ccc(F)c(F)c6)c5=O)cc4c32)C1` [I-7], for which the IC50 was 18 nM. Turning to `Cc1nc2cnc3ccc(C#CCNC(=O)c4cccn(Cc5ccc(F)c(F)c5)c4=O)cc3c2n1C1CCN(C(C)C)CC1` [II-31], the IC50 came out at 8 nM. Regarding `Cc1nc2cnc3ccc(C#CCNC(=O)c4cncn(Cc5ccc(F)c(F)c5)c4=O)cc3c2n1C(C)C` [II-10], the IC50 is 2 nM.

On to `CN1CC[C@H](n2cnc3cnc4ccc(C#CCNC(=O)c5cc(Cl)nn(Cc6ccc(F)c(F)c6)c5=O)cc4c32)C1` [III-16], for which the half-maximal inhibitory concentration (IC50) was determined as 11 nM. As to `Cn1c(CF)nc2cnc3ccc(C#CCNC(=O)c4cncn(Cc5ccc(F)c(F)c5)c4=O)cc3c21` [V-6, 1-(3,4-difluoro-benzyl)-6-oxo-1,6-dihydro-pyrimidine-5-carboxylic acid [3-(2-fluoromethyl-1-methyl-1H-imidazo[4,5-c]quinolin-8-yl)-prop-2-ynyl]-amide], the IC50 turned out to be 19 nM. To `O=C(NCC#Cc1ccc2ncc3ncn([C@@H]4CCNC4)c3c2c1)c1cccn([C@H](CO)c2ccccc2)c1=O` [III-1] belongs 18 nM. Regarding `Cc1nc2cnc3ccc(C#CCNC(=O)c4cccn([C@@H](C)c5ccc(F)c(F)c5)c4=O)cc3c2n1C1CCN(C(C)C)CC1` [II-32], the IC50 stood at 3 nM. With `Cc1nc2cnc3ccc(C#CCNC(=O)c4cc(Cl)nn(Cc5ccc(F)c(F)c5)c4=O)cc3c2n1CCc1ccccc1` [III-7], the IC50 stood at 7 nM. Turning to `O=C(NCC#Cc1ccc2ncc3ncn([C@H]4CCCNC4)c3c2c1)c1cncn(Cc2ccc(F)c(F)c2)c1=O` [I-12], the IC50 came out at 9 nM.

`Cc1cc(C(=O)NCC#Cc2ccc3ncc4nc(C)n(C(C)C)c4c3c2)c(=O)n([C@@H](C)c2ccc(F)c(F)c2)n1` [II-11]: the IC50 amounted to 70 nM. On to `CCN1CCC(n2cnc3cnc4ccc(C#CCNC(=O)c5c(C)n(C)n(Cc6ccc(F)c(F)c6)c5=O)cc4c32)CC1` [III-20], for which the 50% inhibitory concentration (IC50) was found to be 32 nM. To `Cc1nc2cnc3ccc(C#CCNC(=O)c4cncn(Cc5ccc(F)c(F)c5)c4=O)cc3c2n1CCN(C)C` [III-13] belongs 53 nM.

On to `Cc1nc2cnc3ccc(C#CCNC(=O)c4cccn(CC5C[C@@H]6CC[C@H]5C6)c4=O)cc3c2n1C(C)C` (some centres unmarked) [II-23], for which the IC50 amounted to 15 nM. For `Cc1nc2cnc3ccc(C#CCNC(=O)c4cccn(CC5(O)CCCCC5)c4=O)cc3c2n1C(C)C` [II-27], the IC50 was found to be 1100 nM. With `CC(C)N1CCC(n2cnc3cnc4ccc(C#CCNC(=O)c5cccn(Cc6ccc(F)c(F)c6)c5=O)cc4c32)CC1` [II-35], the IC50 came out at 7 nM. In the case of `Cc1nc2cnc3ccc(C#CCNC(=O)c4cccn([C@@H](C)c5ccc(F)c(F)c5)c4=O)cc3c2n1C(C)C` [II-17] it was 1 nM. Turning to `O=C(NCC#Cc1ccc2ncc3ncn(C4CCC4)c3c2c1)c1cncn(Cc2ccc(F)c(F)c2)c1=O` [I-3], the IC50 amounted to 4 nM. In the case of `O=C(NCC#Cc1ccc2ncc3ncn([C@@H]4CCNC4)c3c2c1)c1cncn(Cc2ccc(F)c(F)c2)c1=O` [I-13] it was 16 nM; in that of `Cc1nc2cnc3ccc(C#CCNC(=O)c4cccn([C@@H](C)c5ccc(F)c(F)c5)c4=O)cc3c2n1C1CCN(C)CC1` [III-6], 2 nM.

On to `Cc1nc2cnc3ccc(C#CCNC(=O)c4c(C)n(C)n(Cc5ccc(F)c(F)c5)c4=O)cc3c2n1C1CCOCC1` [III-21], for which the IC50 stood at 5 nM. Turning to `CN1CC[C@@H](n2cnc3cnc4ccc(C#CCNC(=O)c5cncn(Cc6ccc(F)c(F)c6)c5=O)cc4c32)C1` [I-6], the 50% inhibitory concentration (IC50) came to 26 nM. In the case of `Cc1nc2cnc3ccc(C#CCNC(=O)c4ccnn(Cc5ccc(F)c(F)c5)c4=O)cc3c2n1C1CCN(C(C)C)CC1` [III-4], the IC50 is 21 nM. As for `O=C(NCC#Cc1ccc2ncc3ncn([C@H]4CCNC4)c3c2c1)c1cncn(Cc2ccc(F)c(F)c2)c1=O` [I-15], the IC50 turned out to be 28 nM. As for `Cc1nc2cnc3ccc(C#CCNC(=O)c4cccn([C@H](C)c5ccc(F)c(F)c5)c4=O)cc3c2n1C(C)C` [II-7], the IC50 was determined as 55 nM. For `Cc1nc2cnc3ccc(C#CCNC(=O)c4cc(Cl)nn(Cc5ccc(F)c(F)c5)c4=O)cc3c2n1C(C)C` [II-4], the IC50 was 5 nM.

In the case of `Cc1c(C(=O)NCC#Cc2ccc3ncc4ncn(C5CCN(C(C)C)CC5)c4c3c2)c(=O)n(Cc2ccc(F)c(F)c2)n1C` [III-19], the IC50 is 45 nM.

For `O=C(NCC#Cc1ccc2ncc3ncn(C4CCNCC4)c3c2c1)c1cncn(Cc2ccc(F)c(F)c2)c1=O` [I-14], the IC50 was found to be 8 nM. Take `CN(C)CCCn1cnc2cnc3ccc(C#CCNC(=O)c4cncn(Cc5ccc(F)c(F)c5)c4=O)cc3c21` [I-8]: the IC50 is 16 nM. Consider `Cc1nc2cnc3ccc(C#CCNC(=O)c4cccn([C@H](CO)c5ccc(F)c(F)c5)c4=O)cc3c2n1C(C)C` [II-9], for which the IC50 was 2 nM. As for `Cc1cc(C(=O)NCC#Cc2ccc3ncc4nc(C)n(C(C)C)c4c3c2)c(=O)n([C@H](C)c2ccc(F)c(F)c2)n1` [II-1], the IC50 came to 2 nM. Take `O=C(NCC#Cc1ccc2ncc3ncn(CCO)c3c2c1)c1cccn(Cc2ccc(F)c(F)c2)c1=O` [III-11]: the IC50 amounted to 18 nM. As to `CN1CCC(n2cnc3cnc4ccc(C#CCNC(=O)c5cc(Cl)nn(Cc6ccc(F)c(F)c6)c5=O)cc4c32)CC1` [III-14], the IC50 was 1 nM. As for `CN(C)[C@H]1CC[C@@H](n2cnc3cnc4ccc(C#CCNC(=O)c5cccn([C@@H](CO)c6cccc(F)c6)c5=O)cc4c32)CC1` [III-27], the concentration for half-maximal inhibition (IC50) was 3 nM. On to `CCOc1cc(C(=O)NCC#Cc2ccc3ncc4nc(C)n(C(C)C)c4c3c2)c(=O)n(Cc2ccc(F)c(F)c2)n1` [II-5], for which the IC50 is 4 nM. In the case of `CN(C)CCc1nc2cnc3ccc(C#CCNC(=O)c4cncn(Cc5ccc(F)c(F)c5)c4=O)cc3c2n1C` [V-10] it was 22 nM. In the case of `O=C(NCC#Cc1ccc2ncc3ncn(CCCO)c3c2c1)c1cncn(Cc2ccc(F)c(F)c2)c1=O` [I-4] it was 2 nM.
